Reference: PubChem BioAssay (NCI)
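The compound was tested at five concentrations on cells cultured in 96-well plates, with a 48-hour exposure period. TGI is the concentration that stops growth completely.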

Columns and labels:
Assay in all cases: NCI tumour cell line growth inhibition, 48 h
[1] = test system: CAKI-1 renal
[2] = test system: OVCAR-5 ovarian
[3] = test system: COLO 205 colon
[4] = test system: BT-549 breast
[5] = test system: KM12 colon
[6] = test system: CCRF-CEM leukemia
[7] = test system: A498 renal
[8] = test system: EKVX NSCLC
[9] = test system: MDA-MB-231 breast
[10] = test system: RXF 393 renal
[11] = test system: M14 melanoma
[12] = test system: OVCAR-8 ovarian
[13] = test system: SNB-75 CNS
[14] = test system: SR leukemia

| Compound | TGI [1] | TGI [2] | TGI [3] | TGI [4] | TGI [5] | TGI [6] | TGI [7] | TGI [8] | TGI [9] | TGI [10] | TGI [11] | TGI [12] | TGI [13] | TGI [14] |
| --- | --- | --- | --- | --- | --- | --- | --- | --- | --- | --- | --- | --- | --- | --- |
| CC1(Cc2cc3c(cc2C2(c4ccc([N+](=O)[O-])cc4)OCCO2)OCO3)OCCO1 | > 100 µM | > 100 µM | > 100 µM | 98.9 µM | > 100 µM | > 100 µM | > 100 µM | > 100 µM | > 100 µM | > 100 µM | > 100 µM | > 100 µM | – | – |
| C/C(=C(/C)c1cc[n+](C)cc1)c1cc[n+](C)cc1 | > 75 µM | > 75 µM | > 75 µM | – | > 75 µM | > 75 µM | > 75 µM | > 75 µM | – | > 75 µM | > 75 µM | > 75 µM | > 75 µM | – |
| O=[N+]([O-])c1cc(Cl)ccc1S(=O)(=O)c1ccc(Cl)cc1[N+](=O)[O-] | 33.9 µM | 34 µM | 30.7 µM | – | 27.7 µM | > 100 µM | – | – | – | 29.5 µM | 30.4 µM | 29.5 µM | 29.7 µM | 40.3 µM |
| CC[C@H]1C=CCC[C@@]2(C[C@@H]3CC[C@H]4[C@@H](C(=O)OCCCCCCCCCCCCCCCC(=O)N(CCCNC(C)=O)C[C@H](CCNC(C)=O)OC(C)=O)[C@@]5(CCC[C@@H](C)O5)NC(=[N+]34)N2)O1 | 5.08 µM | 2.96 µM | 2.67 µM | 3.5 µM | 2.67 µM | – | 3.27 µM | 2.09 µM | – | 3.44 µM | 3.24 µM | 2.9 µM | – | 3.35 µM |
| Cc1ccccc1C1CC(=O)CC(c2ccccc2C)C12C(=O)NC(=S)NC2=O (stereo not drawn) | > 100 µM | > 100 µM | 42.4 µM | – | 53.6 µM | 70.4 µM | 72.2 µM | > 100 µM | 90.1 µM | 38.8 µM | 91.8 µM | – | 70.7 µM | > 100 µM |
| Cc1ccc2nc(-c3ccc(-c4nc5ccc(C)cc5o4)c(O)c3)oc2c1 | – | > 100 µM | > 100 µM | – | – | > 100 µM | > 100 µM | – | > 100 µM | – | > 100 µM | > 100 µM | > 100 µM | > 100 µM |
| Oc1ccc2ccccc2c1NCn1nc(CCCCCCCCc2nn(CNc3c(O)ccc4ccccc34)c(=S)o2)oc1=S | > 100 µM | > 100 µM | > 100 µM | > 100 µM | > 100 µM | – | > 100 µM | > 100 µM | > 100 µM | – | > 100 µM | – | > 100 µM | – |
| COc1cccc(N2C(=O)C3c4[nH]c5ccc(C)cc5c4C4CCC(C)CC4C3C2=O)c1 (stereo not drawn) | > 100 µM | > 100 µM | > 100 µM | > 100 µM | – | > 100 µM | > 100 µM | > 100 µM | > 100 µM | 47.3 µM | > 100 µM | > 100 µM | – | – |
| CCC1(CC)C(=O)NN(C(=O)c2ccc(Cl)cc2)C1=O | > 100 µM | > 100 µM | > 100 µM | > 100 µM | > 100 µM | > 100 µM | – | > 100 µM | > 100 µM | > 100 µM | > 100 µM | > 100 µM | > 100 µM | > 100 µM |
| O=c1[nH]cc(COCC(O)CO)c(=O)[nH]1 (stereo not drawn) | > 100 µM | > 100 µM | > 100 µM | – | > 100 µM | > 100 µM | > 100 µM | > 100 µM | – | > 100 µM | > 100 µM | > 100 µM | > 100 µM | – |
| CN(C(=O)c1cc2c(s1)sc1c(=O)n(C)c3ccccc3c12)c1ccccc1 | 40.8 µM | > 100 µM | > 100 µM | > 100 µM | > 100 µM | > 100 µM | – | > 100 µM | > 100 µM | > 100 µM | > 100 µM | > 100 µM | > 100 µM | > 100 µM |
| [O-]/[N+](=N/c1ncc(-c2ccccc2)cn1)c1ncc(-c2ccccc2)cn1 | > 100 µM | > 100 µM | > 100 µM | – | > 100 µM | > 100 µM | > 100 µM | > 100 µM | > 100 µM | > 100 µM | > 100 µM | > 100 µM | > 100 µM | > 100 µM |
| CCNC1=C(NC(=O)c2ccc(OC)cc2)C(=O)c2ccccc2C1=O | – | > 100 µM | > 100 µM | > 100 µM | > 100 µM | > 100 µM | – | > 100 µM | > 100 µM | 88.2 µM | 55.9 µM | > 100 µM | > 100 µM | > 100 µM |
| CC(=O)c1c2c(cc3c1CC1(C3)Cc3cc4c(c(C(C)=O)c3C1)CCCC4)CCCC2 | – | > 100 µM | > 100 µM | – | > 100 µM | 44 µM | > 100 µM | > 100 µM | > 100 µM | > 100 µM | > 100 µM | > 100 µM | – | 53.2 µM |
| COc1ccc(C(c2cc(OC)c(OC)c(OC)c2)N2C(=O)CCC2C(=O)O)cc1 (stereo not drawn) | > 100 µM | > 100 µM | > 100 µM | – | > 100 µM | > 100 µM | > 100 µM | > 100 µM | > 100 µM | – | > 100 µM | > 100 µM | > 100 µM | > 100 µM |
| CC(=O)c1sc2n(C)c(=O)c3ccccc3[n+]2c1C | > 100 µM | > 100 µM | > 100 µM | > 100 µM | > 100 µM | > 100 µM | – | > 100 µM | > 100 µM | > 100 µM | > 100 µM | > 100 µM | – | > 100 µM |
| C=CC[C@@]12CCC(=O)C=C1CCCC2=O | > 100 µM | > 100 µM | > 100 µM | – | – | – | > 100 µM | > 100 µM | > 100 µM | > 100 µM | > 100 µM | – | – | > 100 µM |
| COc1ccc2cc(/C=N\NC(=O)Nc3ccc([N+](=O)[O-])cc3)ccc2c1 | 18.5 µM | 48.6 µM | 17.9 µM | 18.6 µM | 24.5 µM | – | – | 25 µM | 19.1 µM | 16.6 µM | > 71.4 µM | 16.9 µM | 23.1 µM | – |
